Test results taken from patent US20180235917A1, “COMPOSITIONS, METHODS AND KITS FOR TREATMENT OF DIABETES AND/OR […]” (NuSirt Sciences, Inc., priority 2014, published 2018).

Assays:
3T3-L1 adipocytes = experiment: Fatty acid oxidation (palmitate-induced O2 consumption, Seahorse XF24) in adipocytes; type: cell-based, mouse; conditions: 24-hour Met-Leu treatment
[1] = tested on: adipocytes (3T3-L1) and myotubes (C2C12); experiment: Glucose utilization (extracellular acidification), cell type not stated; type: cell-based, mouse; conditions: compound alone
Experimental: In the absence of a fatty acid source and oxidative metabolism, glycolysis and subsequent lactate production results in extracellular acidification, which was also measured using a Seahorse Bioscience XF24 analyzer. Cells were prepared and equilibrated similar to the methods described above for fatty acid oxidation, with the exclusion of carnitine from the medium. Following instrument equilibration and three baseline measurements, glucose was injected to a final concentration of 10 mM in each well. Measurements were taken as described above utilizing the sensors for extracellular acidification rather than O2 consumption. Insulin (final concentration of 5 nM) was added to some wells as a positive control. Data for each sample were normalized to the pre-glucose injection baseline for that sample and expressed as % change from that baseline. The area under of the curve of extracellular acidification change from baseline for each sample was then calculated and used for subsequent analysis.
In the absence of a fatty acid source and oxidative metabolism, glycolysis and subsequent lactate production results in extracellular acidification, which was also measured using a Seahorse Bioscience XF24 analyzer. […] Data for each sample were normalized to the pre-glucose injection baseline for that sample and expressed as % change from that baseline. […]

C2C12 myotubes [2] = experiment: Glucose utilization (extracellular acidification response to glucose) in myotubes; type: cell-based, mouse
C2C12 myotubes [3] = conditions: Mooney et al. 2008; cited from earlier work
[4] = tested on: LDL receptor knockout mice; experiment: LDL receptor knockout mice on western diet: plasma lipids, atherosclerosis, macrophage infiltration (Example 7); type: in vivo, mouse
Excerpt: LDL receptor knockout (LDLRKO) mice were obtained from Jackson Laboratories (Bar Harbor, Me.), and housed in groups under room temperature in a humidity-controlled environment with a regular light and dark cycle. The mice were provided free access to an atherogenic western diet (WD) containing 0.21% cholesterol (by weight) and 40% calories from fat and water for 4 weeks prior to treatment. For treatment, the mice were given (a) the WD diet alone, (b) WD and 24 g of leucine/kg diet, (c) WD and 24 g of leucine/kg diet and 50 mg nicotinic acid/kg diet, (d) WD and 24 g of leucine/kg diet and 250 mg nicotinic acid/kg diet, or (e) WD and 1000 mg nicotinic acid/kg diet; this is approximately equivalent to a low therapeutic dose of nicotinic acid in hypercholesterolemic humans (˜1,500 mg/day). The treatments were administered for eight weeks continuously.
Blood samples of the mice in all groups were obtained from tails of the mice at following four and eight weeks of administration. The serum/plasma levels of triglyceride, total cholesterol and cholesterol esters were measured. Following treatment, food was removed for four hours and the animals were euthanized.
Blood was collected into EDTA-coated tubes to analyze plasma lipid and cholesterol profiles. Plasma total cholesterol (TC, Pointe Scientific, Canton, Mich.), free cholesterol (FC, Wako, Richmond, Va.) and triglyceride (TG, Wako, Richmond, Va.) concentrations were measured using enzymatic assays according to manufacturer's instructions. Cholesterol ester (CE) was calculated as the difference between TC and FC.
To assess atherosclerosis, the circulatory system was perfused following euthanasia with phosphate-buffered saline (PBS) before removing the heart and aorta. The upper one-third of the heart was dissected and embedded in Optimal Cutting Temperature Compound (Sakura Tissue-Tek, Torrance, Calif.), frozen, and stored at −80° C. Blocks were serially cut at 8 μm intervals and stained with hematoxylin and 0.5% Oil Red O (Sigma-Aldrich) to evaluate aortic sinus atherosclerotic intimal area. Atherosclerotic lesion area and Oil Red O positive area were quantified using Image-Pro Plus software (Media Cybernetics, Bethesda, Md.). Whole aorta (from sinotubular junction to iliac bifurcate) was dissected and fixed in 10% formalin, and the adventitia was cleaned. Aortas were opened along the longitudinal axis and pinned onto black silicon elastomer (Rubber-Cal, Santa Ana, Calif.) for the quantification of atherosclerotic lesion area. The percentage of total aortic surface covered with atherosclerotic lesions was quantified by Image-Pro Plus software (Media Cybernetics, Bethesda, Md.) and used to determine the total lesion area.
To assess macrophage infiltration, Sections of aortic sinus were immuno-stained with rat monoclonal antibody against macrophage-specific CD68 (Clone FA11, 1:75, AbD Serotec, Raleigh, N.C.) followed by staining with alkaline phosphatase-conjugated mouse anti-rat (for CD68, 1:50) secondary antibodies (Jackson ImmunoResearch laboratories, West Grove, Pa.). Control slides contain no primary antibody. The CD68-positive areas were analyzed using Image-Pro Plus software (Media Cybernetics, Bethesda, Md.).

[5] = tested on: patients pre-diagnosed with hyperlipidemia; experiment: Planned study in hyperlipidemic patients: lipids and cutaneous vasodilation (Example 8); type: in vivo, human; conditions: for triglyceride, LDL, cholesterol and HDL levels compared to day 0: oral twice a day, 60 days
Experimental: Patients that are pre-diagnosed with hyperlipidemia are admitted for the randomized and double blind study. […] The treatments are administered orally twice a day, for 60 days continuously. […] The serum/plasma levels of triglyceride, cholesterol, LDL and HDL are measured. Cutaneous vasodilation is measured by laser-Doppler flowmeter and the discomfort level described by the patients.

[6] = tested on: patients pre-diagnosed with hyperlipidemia; experiment: Planned study in patients: atherosclerotic plaque size by quantitative coronary angiography (Example 9); type: in vivo, human; conditions: oral twice a day, 3 years; nicotinic acid 50 mg, leucine 550 mg, resveratrol 50 mg
Experimental: Patients that experience acute chest pain and are pre-diagnosed with hyperlipidemia are admitted for the randomized and double blind study. […] The treatments are administered orally twice a day, for 3 years continuously. The size of atherosclerotic plaque is measured at day 0, months 6, 12, 18, 24, 30 and 36 by quantitative coronary angiography.

Caenorhabditis elegans = experiment: Lifespan of C. elegans (Example 10); type: in vivo; conditions: basal conditions; leucine 0.5 mM, nicotinic acid 10 nM
Experimental: Eggs were hatched on a starved plate overnight. […] All treatments were added with the indicated concentrations to E. coli the agar plates. […] The worms were maintained at 20° C. throughout the duration of the study. Worms were transferred to new plates daily to eliminate progeny. […] The study was continued until the last animal was dead. Data were analyzed via Kaplan-Meier survival curves using Prism 6 (GraphPad Software) and statistical significance was determined by the Log-rank (Mantel-Cox) test.

[7] = tested on: LDL receptor knockout (LDLRKO) mice; experiment: Planned study in LDL receptor knockout mice with leucine/metformin/nicotinic acid (Example 13); type: in vivo, mouse
[8] = tested on: LDL receptor knockout (Ldlr−/−) mice; experiment: Ldlr−/− mice on atherogenic diet with leucine/metformin/nicotinic acid (Example 15); type: in vivo, Mus musculus
Sirt1 = conditions: C2C12 myotubes
AMPK = conditions: 3T3-L1 adipocytes
[9] = nicotinic acid 50 mg, leucine 550 mg, resveratrol 50 mg
[10] = 24 hours, nicotinic acid 10 nM, leucine 0.5 mM, resveratrol 200 nM

## c1cc(-c2cnn3cc(-c4ccc(OCCN5CCCCC5)cc4)cnc23)ccn1 [Compound C]
3T3-L1 adipocytes
  effect of the AMPK inhibitor on the Met-Leu increase in palmitate-induced fatty acid oxidation: completely blocked this increase

## N=C(N)N [Guanidine]
[1]
  no-effect threshold for stimulation of glucose utilization: 0.1 to 1 µM

## CC(C)=CCN=C(N)N [galegine]
C2C12 myotubes [2]; C2C12 myotubes, 5 nM insulin, galegine 5 μM, leucine 0.5 mM
  increase in insulin-stimulated glucose utilization: no effect
C2C12 myotubes [2]; galegine alone
  concentrations with no independent effect on basal or insulin-stimulated glucose utilization (dose response curves): up to 500 μM
C2C12 myotubes [3]
  concentration below which published literature shows no effect: < 100 µM

## O=C(O)c1cccnc1 [nicotinic acid]
[4]; eight weeks, doses as E77
  decrease in aortic macrophage infiltration (CD68 positive area): ~50%
[4]; eight weeks, nicotinic acid 1,000 mg/kg diet, leucine 24 g/kg diet, or leucine + nicotinic acid 50 mg/kg diet, vs western diet alone
  decrease in atherosclerotic lesion size (lesion and lipid area): ~50%
[4]; four weeks, doses as E73
  decrease in plasma cholesterol esters: 28%
  decrease in plasma triglycerides: 32%
[4]; four weeks, western diet + nicotinic acid 1,000 mg/kg diet, leucine 24 g/kg diet, or leucine + nicotinic acid 50 or 250 mg/kg diet
  decrease in plasma total cholesterol: 20%
[5]; [9]
  cutaneous vasodilation compared to 1500 mg nicotinic acid: lower
  triglyceride, LDL, cholesterol and HDL levels compared to day 0: similar, without statistically significant difference
[5]; nicotinic acid 1500 mg alone
  cutaneous vasodilation compared to all other groups: significant higher cutaneous vasodilation
  triglyceride, LDL, cholesterol and HDL levels compared to day 0: significantly lower triglyceride, LDL and cholesterol levels, and significantly higher HDL level
[6]
  size of atherosclerotic plaque compared to day 0: similar, without statistically significant difference
Caenorhabditis elegans
  effect on lifespan: no independent effect
[7]; diet doses: metformin 1.5 g/kg alone or 0.25 g/kg in combinations, nicotinic acid 1000 mg/kg alone or 50 mg/kg in combinations, leucine 24 g/kg
  plasma insulin and HOMAIR index: high plasma insulin and HOMAIR index
[7]; doses as E112
  atherosclerotic lesion size and aortic macrophage infiltration relative to western diet alone: decrease atherosclerotic lesion size and decrease in aortic macrophage infiltration
[8]; 8 weeks, nicotinic acid 1000 mg/kg diet, or leucine 24 g/kg + metformin 0.5 g/kg + nicotinic acid 50 mg/kg diet, vs atherogenic diet
  fasting blood glucose: no change
[8]; Day 56, doses as E126
  plasma LDL cholesterol: significantly lower
  plasma cholesterol: significantly lower
  plasma triglycerides: significantly lower
[8]; doses as E126
  Oil Red O staining area in the heart and aorta: significantly less Oil Red O staining area
  atherosclerosis (histological images of heart): reduced
  fasting plasma insulin: no change
Sirt1
  concentrations that alone exert no effect (dose-response study): < 100 nM
Sirt1; [10]
  increase in Sirt1 levels: did not have a significant effect
AMPK
  concentrations that alone exert no effect (dose-response study): < 100 nM
AMPK; [10]
  AMPK activation (P-AMPK/AMPK): no significant effect
